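Briefly, cells in 96-well plates were exposed to five compound concentrations for 48 h, and endpoints were estimated by linear interpolation. The concentration for full growth arrest is given as TGI.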
What was measured:
Experiment in all cases: inhibition of tumour cell growth, NCI panel, 48 h
[1] = system: 786-0 renal
[2] = system: A498 renal
[3] = system: A549 NSCLC
[4] = system: ACHN renal
[5] = system: CAKI-1 renal
[6] = system: CCRF-CEM leukemia
[7] = system: COLO 205 colon
[8] = system: DLD-1 colon
[9] = system: DMS 273 small cell lung
[10] = system: EKVX NSCLC
[11] = system: HCC-2998 colon
[12] = system: HCT-116 colon
[13] = system: HCT-15 colon
[14] = system: HL-60(TB) leukemia
[15] = system: HOP-18 NSCLC
[16] = system: HOP-62 NSCLC
[17] = system: HOP-92 NSCLC
[18] = system: HT29 colon
[19] = system: IGROV1 ovarian
[20] = system: K-562 leukemia
[21] = system: KM12 colon
[22] = system: KM20L2 colon
[23] = system: LOX IMVI melanoma
[24] = system: LXFL 529 NSCLC
[25] = system: M14 melanoma
[26] = system: M19-MEL melanoma
[27] = system: MALME-3M melanoma
[28] = system: MOLT-4 leukemia
[29] = system: NCI-H23 lung
[30] = system: NCI-H460 lung
[31] = system: OVCAR-3 ovarian
[32] = system: OVCAR-4 ovarian
[33] = system: OVCAR-5 ovarian
[34] = system: OVCAR-8 ovarian
[35] = system: RPMI-8226 leukemia
[36] = system: RXF-631 renal
[37] = system: SF-295 CNS
[38] = system: SF-539 CNS
[39] = system: SK-MEL-2 melanoma
[40] = system: SK-MEL-28 melanoma
[41] = system: SK-MEL-5 melanoma
[42] = system: SK-OV-3 ovarian
[43] = system: SNB-75 CNS
[44] = system: SNB-78 CNS
[45] = system: SW-620 colon
[46] = system: TK-10 renal
[47] = system: U251 CNS
[48] = system: UACC-257 melanoma
[49] = system: UACC-62 melanoma
[50] = system: XF 498 CNS
[51] = system: DMS 114 small cell lung
[52] = system: NCI-H226 lung
[53] = system: RXF 393 renal
[54] = system: SF-268 CNS
[55] = system: SN12C renal
[56] = system: SNB-19 CNS
[57] = system: UO-31 renal
[58] = system: NCI-H522 lung
[59] = system: SR leukemia

SMILES: CCN(CC)C(=O)CC12CCCCC1=Nc1ccccc12 (configuration not stated)
- TGI [1]: > 100 µM
- TGI [2]: > 100 µM
- TGI [3]: > 100 µM
- TGI [4]: > 100 µM
- TGI [5]: > 100 µM
- TGI [6]: > 100 µM
- TGI [7]: > 100 µM
- TGI [8]: > 100 µM
- TGI [9]: > 100 µM
- TGI [10]: > 100 µM
- TGI [11]: > 100 µM
- TGI [12]: > 100 µM
- TGI [13]: > 100 µM
- TGI [14]: > 100 µM
- TGI [15]: > 100 µM
- TGI [16]: > 100 µM
- TGI [17]: > 100 µM
- TGI [18]: > 100 µM
- TGI [19]: > 100 µM
- TGI [20]: > 100 µM
- TGI [21]: > 100 µM
- TGI [22]: > 100 µM
- TGI [23]: > 100 µM
- TGI [24]: > 100 µM
- TGI [25]: > 100 µM
- TGI [26]: > 100 µM
- TGI [27]: > 100 µM
- TGI [28]: > 100 µM
- TGI [29]: > 100 µM
- TGI [30]: > 100 µM
- TGI [31]: > 100 µM
- TGI [32]: > 100 µM
- TGI [33]: > 100 µM
- TGI [34]: > 100 µM
- TGI [35]: > 100 µM
- TGI [36]: > 100 µM
- TGI [37]: > 100 µM
- TGI [38]: > 100 µM
- TGI [39]: > 100 µM
- TGI [40]: > 100 µM
- TGI [41]: > 100 µM
- TGI [42]: > 100 µM
- TGI [43]: > 100 µM
- TGI [44]: > 100 µM
- TGI [45]: > 100 µM
- TGI [46]: > 100 µM
- TGI [47]: > 100 µM
- TGI [48]: > 100 µM
- TGI [49]: > 100 µM
- TGI [50]: > 100 µM

SMILES: CCc1ccccc1NC(=O)C(=O)C1C(=O)N(c2ccccc2)N=C1N (configuration not stated)
- TGI [1]: > 100 µM
- TGI [2]: > 100 µM
- TGI [3]: > 100 µM
- TGI [4]: > 100 µM
- TGI [5]: > 100 µM
- TGI [8]: > 100 µM
- TGI [51]: > 100 µM
- TGI [9]: > 100 µM
- TGI [10]: > 100 µM
- TGI [11]: > 100 µM
- TGI [12]: > 100 µM
- TGI [13]: > 100 µM
- TGI [14]: > 100 µM
- TGI [15]: > 100 µM
- TGI [16]: > 100 µM
- TGI [17]: > 100 µM
- TGI [18]: > 100 µM
- TGI [19]: > 100 µM
- TGI [20]: > 100 µM
- TGI [21]: > 100 µM
- TGI [22]: > 100 µM
- TGI [23]: > 100 µM
- TGI [24]: > 100 µM
- TGI [25]: > 100 µM
- TGI [26]: > 100 µM
- TGI [27]: > 100 µM
- TGI [28]: > 100 µM
- TGI [52]: > 100 µM
- TGI [29]: > 100 µM
- TGI [30]: > 100 µM
- TGI [31]: > 100 µM
- TGI [32]: > 100 µM
- TGI [33]: > 100 µM
- TGI [34]: > 100 µM
- TGI [35]: > 100 µM
- TGI [53]: > 100 µM
- TGI [36]: > 100 µM
- TGI [54]: > 100 µM
- TGI [37]: > 100 µM
- TGI [38]: > 100 µM
- TGI [39]: > 100 µM
- TGI [40]: > 100 µM
- TGI [41]: > 100 µM
- TGI [55]: > 100 µM
- TGI [56]: > 100 µM
- TGI [43]: > 100 µM
- TGI [44]: > 100 µM
- TGI [45]: > 100 µM
- TGI [46]: > 100 µM
- TGI [47]: > 100 µM
- TGI [48]: > 100 µM
- TGI [49]: > 100 µM
- TGI [57]: > 100 µM
- TGI [50]: > 100 µM

SMILES: CCN(/N=C1\CC2C=CCN(C2)C(=O)Cc2c1[nH]c1ccccc21)S(=O)(=O)c1ccc(C)cc1 (configuration not stated)
- TGI [1]: > 100 µM
- TGI [3]: > 100 µM
- TGI [4]: > 100 µM
- TGI [5]: > 100 µM
- TGI [6]: > 100 µM
- TGI [7]: > 100 µM
- TGI [8]: > 100 µM
- TGI [51]: > 100 µM
- TGI [9]: > 100 µM
- TGI [10]: > 100 µM
- TGI [11]: > 100 µM
- TGI [12]: > 100 µM
- TGI [13]: > 100 µM
- TGI [14]: > 100 µM
- TGI [19]: > 100 µM
- TGI [20]: > 100 µM
- TGI [21]: > 100 µM
- TGI [22]: > 100 µM
- TGI [23]: > 100 µM
- TGI [26]: > 100 µM
- TGI [27]: > 100 µM
- TGI [28]: > 100 µM
- TGI [52]: 38.6 µM
- TGI [29]: > 100 µM
- TGI [58]: > 100 µM
- TGI [32]: > 100 µM
- TGI [34]: > 100 µM
- TGI [35]: > 100 µM
- TGI [36]: > 100 µM
- TGI [37]: > 100 µM
- TGI [38]: > 100 µM
- TGI [39]: > 100 µM
- TGI [41]: > 100 µM
- TGI [55]: > 100 µM
- TGI [56]: > 100 µM
- TGI [43]: > 100 µM
- TGI [59]: > 100 µM
- TGI [45]: > 100 µM
- TGI [46]: > 100 µM
- TGI [47]: > 100 µM
- TGI [48]: > 100 µM
- TGI [49]: > 100 µM
- TGI [57]: > 100 µM
- TGI [50]: > 100 µM

SMILES: COc1ccc([C@@H]2OC(=O)C3C2C(=O)O[C@H]3c2ccc(OC)cc2)cc1 (some centres not stated)
- TGI [1]: > 100 µM
- TGI [2]: > 100 µM
- TGI [3]: > 100 µM
- TGI [4]: > 100 µM
- TGI [5]: > 100 µM
- TGI [6]: > 100 µM
- TGI [7]: > 100 µM
- TGI [8]: > 100 µM
- TGI [51]: > 100 µM
- TGI [9]: > 100 µM
- TGI [10]: > 100 µM
- TGI [11]: > 100 µM
- TGI [12]: > 100 µM
- TGI [13]: > 100 µM
- TGI [14]: > 100 µM
- TGI [15]: > 100 µM
- TGI [16]: > 100 µM
- TGI [18]: > 100 µM
- TGI [19]: > 100 µM
- TGI [20]: > 100 µM
- TGI [21]: > 100 µM
- TGI [22]: > 100 µM
- TGI [24]: > 100 µM
- TGI [26]: > 100 µM
- TGI [28]: > 100 µM
- TGI [29]: > 100 µM
- TGI [30]: > 100 µM
- TGI [31]: > 100 µM
- TGI [32]: > 100 µM
- TGI [34]: > 100 µM
- TGI [35]: > 100 µM
- TGI [53]: > 100 µM
- TGI [36]: > 100 µM
- TGI [37]: > 100 µM
- TGI [38]: > 100 µM
- TGI [39]: > 100 µM
- TGI [40]: > 100 µM
- TGI [42]: > 100 µM
- TGI [55]: > 100 µM
- TGI [56]: > 100 µM
- TGI [43]: > 100 µM
- TGI [44]: > 100 µM
- TGI [59]: > 100 µM
- TGI [45]: > 100 µM
- TGI [47]: > 100 µM
- TGI [48]: > 100 µM
- TGI [49]: > 100 µM
- TGI [57]: > 100 µM
- TGI [50]: > 100 µM
